One experiment addresses T1, β-receptors of the heart (Felis catus, UniProt Q9TST6).
T1 construct: from tissue; host or cells: heart of the anesthetized, reserpine-pretreated, vagotomized cat (in vivo)
Description: Intrinsic activity on heart rate in reserpinized cat. Format: in vivo. As to conditions: iv, anesthetized, vagotomized, i.v., read-out: Intrinsic activity % of maximal isoprenaline heart rate. As for the experimental part:
(§1) Compounds prepared according to the examples were evaluated for intrinsic activity and blocking effect on heart rate and peripheral vasodilator response to isoprenaline in the cat. Alprenolol was used as a reference source.
(§2) Cats weighing between 1.8 and 2.8 kg were anesthetized with 39 mg/kg pentobarbital sodium, intraperitoneally. The cat had been pre-treated with reserpine, 5 mg/kg intramuscular, about 18 hours before the experiment. Bilateral vagotomy was performed before the start of the experiment.
(§3) The heart rate was recorded on an Offner cardiotachometer triggered by the EKG-complex. Mean arterial blood pressure was recorded from a carotid artery. The peripheral resistance was measured in one of the legs of the cat in the following way: The femoral artery was opened in the inguinal region and the leg was perfused by blood delivered through a sigma motor pump at constant rate. The flow resistance (the pressure) was recorded via pressure transducer connected to the catheter distally to the pump. The paw was excluded from the circulation by a tight ligature. Intravenously injected isoprenaline increased the heart rate and reduced the perfusion pressure. An isoprenaline dose giving 70-80% of the maximal chronotropic response was determined. This dose (usually 0.1 μg/kg) was then repeated with 20-minute intervals. Ten minutes before each isoprenaline injection, the tested substances were administered intravenously for two minutes, starting with a dose of 0.01 mg/kg and increasing each subsequent dose fourfold. The intrinsic effects of the test substances were determined. The dose producing 50% blockade of the isoprenaline responses was evaluated from the plotted log dose percent blockade diagrams.
T2 sequence (Q9TST5 whole entry, the tested form may be a part): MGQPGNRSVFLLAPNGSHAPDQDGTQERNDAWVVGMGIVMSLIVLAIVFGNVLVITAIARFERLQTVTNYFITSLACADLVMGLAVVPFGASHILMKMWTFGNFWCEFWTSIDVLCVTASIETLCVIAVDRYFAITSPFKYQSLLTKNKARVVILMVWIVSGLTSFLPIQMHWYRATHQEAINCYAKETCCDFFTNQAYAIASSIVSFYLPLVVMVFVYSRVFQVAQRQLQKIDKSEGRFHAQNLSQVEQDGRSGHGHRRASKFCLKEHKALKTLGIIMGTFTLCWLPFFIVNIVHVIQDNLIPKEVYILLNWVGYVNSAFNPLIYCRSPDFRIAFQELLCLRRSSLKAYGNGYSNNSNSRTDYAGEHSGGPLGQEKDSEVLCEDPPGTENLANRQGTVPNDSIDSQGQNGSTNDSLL
T1 sequence (Q9TST6 whole entry): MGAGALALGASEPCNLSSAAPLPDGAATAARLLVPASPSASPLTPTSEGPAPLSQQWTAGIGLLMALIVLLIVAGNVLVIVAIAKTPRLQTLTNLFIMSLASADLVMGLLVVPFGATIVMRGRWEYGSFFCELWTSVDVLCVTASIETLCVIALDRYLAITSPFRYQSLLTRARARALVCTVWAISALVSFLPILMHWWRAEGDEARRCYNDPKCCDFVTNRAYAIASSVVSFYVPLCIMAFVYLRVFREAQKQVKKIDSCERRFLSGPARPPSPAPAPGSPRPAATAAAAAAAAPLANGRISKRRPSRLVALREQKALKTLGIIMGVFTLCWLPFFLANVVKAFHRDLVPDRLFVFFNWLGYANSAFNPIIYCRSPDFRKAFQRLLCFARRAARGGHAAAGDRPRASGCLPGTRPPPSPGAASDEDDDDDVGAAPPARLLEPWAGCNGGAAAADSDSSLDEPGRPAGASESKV
On to `COCCc1ccc(OCC(O)CNC(C)C)c(Br)c1` (stereo not drawn) [Example 1, 1-isopropylamino-3-[2'-bromo-4'-(β-methoxyethyl)-phenoxy]-propanol-2], for which the Emax amounted to 0%.
On the same count and under the same terms, for `COCCc1ccc(OCC(O)CNC(C)C)c(Cl)c1` (stereo not drawn) [Example 2, 1-isopropylamino-3-[2'-chloro-4'-(2-methoxyethyl)phenoxy]-propanol-2] the value was 0%; for `COCCc1ccc(OCC(O)CNC(C)(C)C)c(Cl)c1` (stereo not drawn) [Example 3], 0%.
On the same count and under the same terms, for `COCCc1ccc(OCC(O)CNC(C)C)c(COC)c1` (stereo not drawn) [Example 4, 1-isopropylamino-3-[2'-methoxymethyl-4'-(2-methoxyethyl)phenoxy]-propanol-2] the value was 5%; for `COCCCc1ccc(OCC(O)CNC(C)C)c(Cl)c1` (stereo not drawn) [Example 5, 1-isopropylamino-3-[2'-chloro-4'-(3-methoxy-n-propyl)phenoxy]-propanol-2], 0%.
Turning to `COCCCc1ccc(OCC(O)CNC(C)C)c(Br)c1` (stereo not drawn) [Example 6, 1-isopropylamino-3-[2'-bromo-4'-(3-methoxypropyl)phenoxy]-propanol-2], the Emax turned out to be 0%.
Take `COCc1ccc(OCC(O)CNC(C)C)c(OC)c1` (stereo not drawn) [Example 7, 1-isopropyalmino-3-[2'-methoxymethylphenoxy]-propanol-2]: the Emax is 1%.
For `C=CCc1cc(CCOC)ccc1OCC(O)CNC(C)C` (stereo not drawn) [Example 8, 1-isopropylamino-3-[2'-allyl-4'-(2-methoxyethyl)-phenoxyl]propanol-2], the Emax came to 0%.
As to `CCCc1cc(CCOC)ccc1OCC(O)CNC(C)C` (stereo not drawn) [Example 9, 1-isopropylamino-3-[2'-propyl-4'-(2-methoxyethyl)phenoxy]-propanol-2], the Emax turned out to be 0%.
For `C=CCc1cc(CCCOC)ccc1OCC(O)CNC(C)C` (stereo not drawn) [Example 10, 1-isopropylamino-3-[2'-allyl-4'-(3-methoxy-n-propyl)phenoxy]-propanol-2], the Emax turned out to be 0%.
The same measure, in the same setting: for `CSCCc1ccc(OCC(O)CNC(C)C)c(F)c1` (stereo not drawn) [Example 11, 1-isopropylamino-3-[2'-fluoro-4'-(2-methylmercaptoethyl)phenoxy]-propanol-2xHCl] the value was 0%; for `COCCCc1ccc(OCC(O)CNC(C)C)c(OC)c1` (stereo not drawn) [Example 12, 1-isopropylamino-3-[2'-methoxy-4'-(3-methoxy-n-propyl)phenoxy]-propanol-2xHCl], 0%.
On the same count and under the same terms, next, `COCCc1ccc(OCC(O)CNC(C)C)c(F)c1` (stereo not drawn) [Example 13, 1-isopropylamino-3-[2'-fluoro-4'-(2-methoxyethyl)phenoxy]-propanol-2xHCl]: 0%.

A further experiment concerns the target T2, β2-receptors of the smooth muscles (Felis catus, UniProt Q9TST5).
T2 construct: from tissue; host or cells: vascular bed of the blood-perfused leg of the anesthetized cat, paw excluded (in vivo)
Description: β-blockade of isoprenaline peripheral vasodilator response (peripheral vascular resistance) in reserpinized cat. Format: in vivo. As to conditions: iv, 50% blockade of isoprenaline (usually 0.1 μg/kg) response. As for the experimental part: as §1, §2, §3
Usually ED50 stands for the dose at which the effect has come halfway, by size or by number of responders. `COCCc1ccc(OCC(O)CNC(C)C)c(Br)c1` (stereo not drawn) [Example 1, 1-isopropylamino-3-[2'-bromo-4'-(β-methoxyethyl)-phenoxy]-propanol-2] registered an ED50 of 1 mg/kg.
Turning to `COCCc1ccc(OCC(O)CNC(C)C)c(Cl)c1` (stereo not drawn) [Example 2, 1-isopropylamino-3-[2'-chloro-4'-(2-methoxyethyl)phenoxy]-propanol-2], the ED50 was found to be 3 mg/kg.
Same read-out and setting: next, `COCCc1ccc(OCC(O)CNC(C)(C)C)c(Cl)c1` (stereo not drawn) [Example 3]: 1 mg/kg.
On the same count and under the same terms, for `COCCc1ccc(OCC(O)CNC(C)C)c(COC)c1` (stereo not drawn) [Example 4, 1-isopropylamino-3-[2'-methoxymethyl-4'-(2-methoxyethyl)phenoxy]-propanol-2] the value was 5 mg/kg.
In turn, `COCCCc1ccc(OCC(O)CNC(C)C)c(Cl)c1` (stereo not drawn) [Example 5, 1-isopropylamino-3-[2'-chloro-4'-(3-methoxy-n-propyl)phenoxy]-propanol-2] gave an ED50 of 2 mg/kg.
Compound `COCCCc1ccc(OCC(O)CNC(C)C)c(Br)c1` (stereo not drawn) [Example 6, 1-isopropylamino-3-[2'-bromo-4'-(3-methoxypropyl)phenoxy]-propanol-2] returned an ED50 of 1.5 mg/kg.
On the same count and under the same terms, for `COCc1ccc(OCC(O)CNC(C)C)c(OC)c1` (stereo not drawn) [Example 7, 1-isopropyalmino-3-[2'-methoxymethylphenoxy]-propanol-2] the value was 3 mg/kg; for `C=CCc1cc(CCOC)ccc1OCC(O)CNC(C)C` (stereo not drawn) [Example 8, 1-isopropylamino-3-[2'-allyl-4'-(2-methoxyethyl)-phenoxyl]propanol-2], 0.8 mg/kg; for `CCCc1cc(CCOC)ccc1OCC(O)CNC(C)C` (stereo not drawn) [Example 9, 1-isopropylamino-3-[2'-propyl-4'-(2-methoxyethyl)phenoxy]-propanol-2], 0.5 mg/kg.
Same read-out and setting: for `C=CCc1cc(CCCOC)ccc1OCC(O)CNC(C)C` (stereo not drawn) [Example 10, 1-isopropylamino-3-[2'-allyl-4'-(3-methoxy-n-propyl)phenoxy]-propanol-2] the value was 1 mg/kg; for `CSCCc1ccc(OCC(O)CNC(C)C)c(F)c1` (stereo not drawn) [Example 11, 1-isopropylamino-3-[2'-fluoro-4'-(2-methylmercaptoethyl)phenoxy]-propanol-2xHCl], 1 mg/kg; for `COCCCc1ccc(OCC(O)CNC(C)C)c(OC)c1` (stereo not drawn) [Example 12, 1-isopropylamino-3-[2'-methoxy-4'-(3-methoxy-n-propyl)phenoxy]-propanol-2xHCl], 5 mg/kg.
Compound `COCCc1ccc(OCC(O)CNC(C)C)c(F)c1` (stereo not drawn) [Example 13, 1-isopropylamino-3-[2'-fluoro-4'-(2-methoxyethyl)phenoxy]-propanol-2xHCl] yielded an ED50 of 2.7 mg/kg.

Another experiment deals with T1, β-receptors of the heart. In words: β-blockade of isoprenaline heart rate response in reserpinized cat. The format is in vivo. As to conditions: cat, iv, read-out: β-blockade heart rate ED50. As for the experimental part:
as §1, §2, §3
In the case of `COCCCc1ccc(OCC(O)CNC(C)C)c(Br)c1` (stereo not drawn) [Example 6, 1-isopropylamino-3-[2'-bromo-4'-(3-methoxypropyl)phenoxy]-propanol-2], the ED50 is 0.4 mg/kg.
As to `COCCCc1ccc(OCC(O)CNC(C)C)c(OC)c1` (stereo not drawn) [Example 12, 1-isopropylamino-3-[2'-methoxy-4'-(3-methoxy-n-propyl)phenoxy]-propanol-2xHCl], the median effective dose (ED50) turned out to be 0.4 mg/kg.

Staying with this experiment, now noted: iv; reserpinized cat, i.v., 50% blockade of isoprenaline (usually 0.1 μg/kg) response; read-out: β-blockade heart rate ED50.
Take `COCCc1ccc(OCC(O)CNC(C)C)c(Br)c1` (stereo not drawn) [Example 1, 1-isopropylamino-3-[2'-bromo-4'-(β-methoxyethyl)-phenoxy]-propanol-2]: the ED50 worked out at 0.03 mg/kg.
Still for that read-out and setting: next, `COCCc1ccc(OCC(O)CNC(C)C)c(Cl)c1` (stereo not drawn) [Example 2, 1-isopropylamino-3-[2'-chloro-4'-(2-methoxyethyl)phenoxy]-propanol-2]: 0.1 mg/kg.
Still for that read-out and setting: for `COCCc1ccc(OCC(O)CNC(C)(C)C)c(Cl)c1` (stereo not drawn) [Example 3] the value was 0.03 mg/kg; for `COCCc1ccc(OCC(O)CNC(C)C)c(COC)c1` (stereo not drawn) [Example 4, 1-isopropylamino-3-[2'-methoxymethyl-4'-(2-methoxyethyl)phenoxy]-propanol-2], 0.2 mg/kg.
Same read-out and setting: for `COCCCc1ccc(OCC(O)CNC(C)C)c(Cl)c1` (stereo not drawn) [Example 5, 1-isopropylamino-3-[2'-chloro-4'-(3-methoxy-n-propyl)phenoxy]-propanol-2] the value was 0.3 mg/kg; for `COCc1ccc(OCC(O)CNC(C)C)c(OC)c1` (stereo not drawn) [Example 7, 1-isopropyalmino-3-[2'-methoxymethylphenoxy]-propanol-2], 0.6 mg/kg; for `C=CCc1cc(CCOC)ccc1OCC(O)CNC(C)C` (stereo not drawn) [Example 8, 1-isopropylamino-3-[2'-allyl-4'-(2-methoxyethyl)-phenoxyl]propanol-2], 0.1 mg/kg.
With `CCCc1cc(CCOC)ccc1OCC(O)CNC(C)C` (stereo not drawn) [Example 9, 1-isopropylamino-3-[2'-propyl-4'-(2-methoxyethyl)phenoxy]-propanol-2], the 50% effective dose (ED50) came out at 0.1 mg/kg.
The same measure, in the same setting: next, `C=CCc1cc(CCCOC)ccc1OCC(O)CNC(C)C` (stereo not drawn) [Example 10, 1-isopropylamino-3-[2'-allyl-4'-(3-methoxy-n-propyl)phenoxy]-propanol-2]: 0.3 mg/kg.
For the compound `CSCCc1ccc(OCC(O)CNC(C)C)c(F)c1` (stereo not drawn) [Example 11, 1-isopropylamino-3-[2'-fluoro-4'-(2-methylmercaptoethyl)phenoxy]-propanol-2xHCl], the ED50 amounted to 0.2 mg/kg.
On to `COCCc1ccc(OCC(O)CNC(C)C)c(F)c1` (stereo not drawn) [Example 13, 1-isopropylamino-3-[2'-fluoro-4'-(2-methoxyethyl)phenoxy]-propanol-2xHCl], for which the ED50 was found to be 0.05 mg/kg.

For the origin of these results see patent publication US4145442A, “Phenoxy-hydroxypropylamines, their preparation, and method and pharmaceutical preparations for treating cardiovascular diseases” (priority 1972, dated 1979).
